Experimental data from patent US9777017B2, “Tricyclic fused thiophene derivatives as JAK inhibitors” (Incyte Corporation, priority 2012, dated 2017).

Assays:
Assay type in all cases: biochemical
[1] = target: human JAK2 (Homo sapiens (Human), UniProt O60674); assay: In vitro JAK kinase assay (HTRF, phosphorylation of a biotinylated peptide), JAK2; design: key to JAK2 IC50 (nM): +indicates an IC50 of ≦100 nM; ++indicates an IC50 of ≦1000 nM; +++indicates an IC50 of ≦2000 nM; ++++indicates an IC50 of >2000 nM; +++++indicates that the IC50 was greater than the highest concentration tested; conditions: 1 mM ATP
Chain of human JAK2 (O60674 828-1132): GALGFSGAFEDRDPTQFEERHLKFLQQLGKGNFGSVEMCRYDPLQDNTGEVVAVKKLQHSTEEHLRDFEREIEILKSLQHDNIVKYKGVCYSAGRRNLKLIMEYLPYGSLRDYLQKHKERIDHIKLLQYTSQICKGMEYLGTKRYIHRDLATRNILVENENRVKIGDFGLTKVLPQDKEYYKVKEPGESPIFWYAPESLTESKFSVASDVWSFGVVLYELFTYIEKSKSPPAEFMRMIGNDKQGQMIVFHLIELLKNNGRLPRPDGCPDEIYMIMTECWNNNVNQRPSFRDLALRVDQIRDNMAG
Summary of the method: (§1)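 Baculovirus-expressed catalytic domains (JAK1 a.a. 837-1142, JAK2 a.a. 828-1132) phosphorylate 500 nM biotinylated peptide at 1 mM ATP, Tris pH 7.8, 1 h at room temperature. EDTA stop and HTRF detection with Eu-Py20/SA-APC; IC50 values derived.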

[2] = target: human JAK1 (Homo sapiens, UniProt P23458); assay: In vitro JAK kinase assay (HTRF, phosphorylation of a biotinylated peptide), JAK1; conditions: 1 mM ATP
Summary of the method: as §1

[3] = system: human JAK1; assay: as above; conditions: ratio of IC50s, 1 mM ATP
Summary of the method: as §1

Row | Molecule | IC50 [1] [nM] | IC50 [2] [nM] | JAK2/JAK1 [3] | JAK2 IC50 (nM) [1]
1 | CC(N)c1nc2cnc3ccsc3c2n1[C@H]1CC[C@H](CC#N)OC1.O=C(O)C(F)(F)F (stereo partly drawn) [Example 68, {(2R,5S)-5-[2-(1-Aminoethyl)-1H-imidazo[4,5-d]thieno[3,2-b]pyridin-1-yl]tetrahydro-2H-pyran-2-yl}acetonitrile trifluoroacetate] | ≤ 2000 | ≤ 100 | >10 | –
2 | C[C@@H](O)c1nc2cnc3ccsc3c2n1[C@H]1CCCN(C(=O)CCc2ccccc2)C1 [Example 57] | > 2000 | ≤ 100 | >10 | –
3 | C[C@@H](O)c1nc2cnc3ccsc3c2n1[C@H]1CCCN(C(=O)CCC#N)C1 [Example 58, 4-((3S)-3-{2-[(1R)-1-Hydroxyethyl]-1H-imidazo[4,5-d]thieno[3,2-b]pyridin-1-yl}piperidin-1-yl)-4-oxobutanenitrile] | – | ≤ 100 | >10 | +++++
4 | ((1R,2S,4S)-2-Hydroxy-4-{2-[(1R)-1-hydroxyethyl]-1H-imidazo[4,5-d]thieno[3,2-b]pyridin-1-yl}cyclohexyl)acetonitrile trifluoacetate and ((1S,2R,4R)-2-hydroxy-4-{2-[(1R)-1-hydroxyethyl]-1H-imidazo[4,5-d]thieno[3,2-b]pyridin-1-yl}cyclohexyl)acetonitrile trifluoacetate [37 (first peak)] | – | ≤ 1000 | >10 | +++++
5 | N#CC[C@H]1CC[C@H](n2/c(=N/C#N)[nH]c3cnc4ccsc4c32)CC1.O=C(O)C(F)(F)F [Example 25, {(2E)-1-[trans-4-(Cyanomethyl)cyclohexyl]-1,3-dihydro-2H-imidazo[4,5-d]thieno[3,2-b]pyridin-2-ylidene}cyanamide trifluoroacetate] | ≤ 1000 | ≤ 100 | >6 | –
6 | ((1R,2S,4S)-2-Hydroxy-4-{2-[(1R)-1-hydroxyethyl]-1H-imidazo[4,5-d]thieno[3,2-b]pyridin-1-yl}cyclohexyl)acetonitrile trifluoacetate and ((1S,2R,4R)-2-hydroxy-4-{2-[(1R)-1-hydroxyethyl]-1H-imidazo[4,5-d]thieno[3,2-b]pyridin-1-yl}cyclohexyl)acetonitrile trifluoacetate [37 (second peak)] | ≤ 1000 | ≤ 100 | >10 | –
7 | N#CCc1nc2cnc3ccsc3c2n1[C@H]1CC[C@H](CC#N)OC1 [Example 73, {(2R,5S)-5-[2-(Cyanomethyl)-1H-imidazo[4,5-d]thieno[3,2-b]pyridin-1-yl]tetrahydro-2H-pyran-2-yl}acetonitrile] | ≤ 1000 | ≤ 100 | >10 | –
8 | ((1R,2R,4S)-2-Hydroxy-4-{2-[(1R)-1-hydroxyethyl]-1H-imidazo[4,5-d]thieno[3,2-b]pyridin-1-yl}cyclohexyl)acetonitrile and ((1S,2S,4R)-2-hydroxy-4-{2-[(1R)-1-hydroxyethyl]-1H-imidazo[4,5-d]thieno[3,2-b]pyridin-1-yl}cyclohexyl)acetonitrile [36 (second peak)] | ≤ 1000 | ≤ 100 | >10 | –
9 | C[C@@H](O)c1nc2cnc3ccsc3c2n1[C@@H]1CC[C@@H](CC#N)OC1 [Example 44, ((2S,5R)-5-{2-[(1R)-1-Hydroxyethyl]-1H-imidazo[4,5-b]thieno[3,2-b]pyridin-1-yl}tetrahydro-2H-pyran-2-yl)acetonitrile] | – | ≤ 1000 | >10 | +++++
10 | C[C@@H](O)c1nc2cnc3ccsc3c2n1[C@H]1CCN(CCCC#N)C1 [Example 65, 4-((3S)-3-{2-[(1R)-1-Hydroxyethyl]-1H-imidazo[4,5-d]thieno[3,2-b]pyridin-1-yl}pyrrolidin-1-yl)butanenitrile] | – | ≤ 1000 | >10 | +++++
11 | CCc1nc2cnc3ccsc3c2n1[C@H]1CC[C@H](CC#N)OC1 [Example 39, [(2R,5S)-5-(2-Ethyl-1H-imidazo[4,5-d]thieno[3,2-b]pyridin-1-yl)tetrahydro-2H-pyran-2-yl]acetonitrile] | ≤ 1000 | ≤ 100 | >10 | –
12 | N#CC[C@H]1CC[C@H](n2c(C3CNC3)nc3cnc4ccsc4c32)CC1 [Example 28, [trans-4-(2-Azetidin-3-yl-1H-imidazo[4,5-d]thieno[3,2-b]pyridin-1-yl)cyclohexyl]acetonitrile] | – | ≤ 2000 | >7 | +++++
13 | C[C@@H](O)c1nc2cnc3ccsc3c2n1C1CCN(CC#N)CC1.O=C(O)C(F)(F)F [Example 61, (4-{2-[(1R)-1-Hydroxyethyl]-1H-imidazo[4,5-d]thieno[3,2-b]pyridin-1-yl}piperidin-1-yl)acetonitrile trifluoroacetate] | – | ≤ 1000 | >10 | +++++
14 | C[C@@H](O)c1nc2cnc3ccsc3c2n1[C@H]1CCCN(C(=O)CC#N)C1.O=C(O)C(F)(F)F [Example 51, 3-((3S)-3-{2-[(1R)-1-Hydroxyethyl]-1H-imidazo[4,5-d]thieno[3,2-b]pyridin-1-yl}piperidin-1-yl)-3-oxopropanenitrile trifluoroacetate] | > 2000 | ≤ 1000 | >10 | –
15 | N#CCC1CCC(CO)(n2cnc3cnc4ccsc4c32)CC1 (single isomer, unassigned) [72 (second peak), [4-(Hydroxymethyl)-4-(1H-imidazo[4,5-d]thieno[3,2-b]pyridin-1-yl)cyclohexyl]acetonitrile] | ≤ 1000 | ≤ 100 | >5 | –

Second part, the molecule after the results:

Row | IC50 [1] [nM] | IC50 [2] [nM] | JAK2/JAK1 [3] | JAK2 IC50 (nM) [1] | Molecule
16 | ≤ 1000 | ≤ 100 | >10 | – | N#CC[C@H]1CC[C@H](n2c(CO)nc3cnc4ccsc4c32)CC1 [Example 17, {trans-4-[2-(Hydroxymethyl)-1H-imidazo[4,5-b]thieno[3,2-b]pyridin-1-yl]cyclohexyl}acetonitrile]
17 | – | ≤ 1000 | >10 | +++++ | CC(=O)NC(C)c1nc2cnc3ccsc3c2n1[C@H]1CC[C@H](CC#N)OC1 (stereo partly drawn) [Example 69, N-(1-{1-[(3S,6R)-6-(Cyanomethyl)tetrahydro-2H-pyran-3-yl]-1H-imidazo[4,5-d]thieno[3,2-b]pyridin-2-yl}ethyl)acetamide]
18 | – | ≤ 1000 | >4 | +++++ | CS(=O)(=O)NCc1nc2cnc3ccsc3c2n1[C@H]1CC2CCC1C2 (stereo partly drawn) [Example 22, N-((1-((2S)-Bicyclo[2.2.1]heptan-2-yl)-1H-imidazo[4,5-d]thieno[3,2-b]pyridin-2-yl)methyl)methanesulfonamide]
19 | ≤ 2000 | ≤ 100 | >10 | – | C[C@@H](O)c1nc2cnc3ccsc3c2n1[C@H]1CC[C@H](CF)CC1 [Example 12, (1R)-1-{1-[trans-4-(Fluoromethyl)cyclohexyl]-1H-imidazo[4,5-d]thieno[3,2-b]pyridin-2-yl}ethanol]
20 | – | ≤ 100 | >10 | +++++ | CC(C)OC(=O)NC[C@H]1CC[C@H](n2c(CC#N)nc3cnc4ccsc4c32)CC1 [Example 88, Isopropyl ({trans-4-[2-(cyanomethyl)-1H-imidazo[4,5-d]thieno[3,2-b]pyridin-1-yl]cyclohexyl}methyl)carbamate]
21 | ≤ 2000 | ≤ 100 | >10 | – | C[C@@H](O)c1nc2cnc3ccsc3c2n1[C@H]1CC[C@H](CNS(C)(=O)=O)CC1 [Example 80, N-[(trans-4-{2-[(1R)-1-Hydroxyethyl]-1H-imidazo[4,5-d]thieno[3,2-b]pyridin-1-yl}cyclohexyl)methyl]methanesulfonamide]
22 | > 2000 | ≤ 1000 | >10 | – | C[C@@H](O)c1nc2cnc3ccsc3c2n1C1CCN(CCC#N)CC1 [Example 16, 3-(4-{2-[(1R)-1-Hydroxyethyl]-1H-imidazo[4,5-d]thieno[3,2-b]pyridin-1-yl}piperidin-1-yl)propanenitrile]
23 | – | ≤ 1000 | >10 | +++++ | C[C@@H](O)c1nc2cnc3ccsc3c2n1C1CCN(CCCC(F)(F)F)CC1 [Example 60, (1R)-1-{1-[1-(4,4,4-Trifluorobutyl)piperidin-4-yl]-1H-imidazo[4,5-d]thieno[3,2-b]pyridin-2-yl}ethanol]
24 | – | ≤ 1000 | >10 | +++++ | CCOC(=O)N1CCC[C@H](n2c([C@@H](C)O)nc3cnc4ccsc4c32)C1 [Example 50, Ethyl (3S)-3-{2-[(1R)-1-hydroxyethyl]-1H-imidazo[4,5-d]thieno[3,2-b]pyridin-1-yl}piperidine-1-carboxylate]
25 | – | ≤ 2000 | >10 | +++++ | C[C@@H](O)c1nc2cnc3ccsc3c2n1C1CCC(NCCC#N)CC1 (single isomer, unassigned) [30 (second peak)]
26 | – | ≤ 1000 | >10 | +++++ | C[C@@H](O)c1nc2cnc3ccsc3c2n1[C@H]1CCC(CO)OC1 (stereo partly drawn) [Example 19, (1R)-1-{1-[(3S)-6-(Hydroxymethyl)tetrahydro-2H-pyran-3-yl]-1H-imidazo[4,5-d]thieno[3,2-b]pyridin-2-yl}ethanol]
